Experimental findings from ChEMBL document CHEMBL1201862, “PubChem BioAssay data set” (2004) are described below.

Some test systems named below: ACHN; BT-549; DU-145; LOX IMVI; M14; MDA-MB-231; MDA-N; MOLT-4; Malme-3M; OVCAR-3; RPMI-8226; RXF 393; SK-MEL-28; SK-MEL-5; SK-OV-3; SN12C; SNB-19; TK-10; UACC-257.
What all share (test): NCI anticancer screen, dose series, 48 h

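Where inhibition never reached the appropriate level, the endpoint shown equals the highest concentration tested. Otherwise, values were interpolated linearly from a five-concentration, 48-hour dose response in 96-well plates. At the GI50, growth is halved.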 Calls of active or inactive are those of the source. Cut-off read from the data, not from the text of the source: active = GI50 up to about 1.1 µM and inactive = higher.

On to `CC(=O)O[C@H]1CCC2[C@@H]3CCC4Nc5oncc5C[C@]4(C)C3CC[C@@]21C` (stereo not given in full), for which the GI50 in the assay on ACHN, in the assay with BT-549, in the assay on DU-145, in the assay with LOX IMVI, in the assay on M14 and in the assay on MDA-MB-231 was > 10 µM (inactive) in each case. The GI50 was > 10 µM (inactive) in the assay on MDA-N; 3.92 µM (inactive) in the assay on MOLT-4; > 10 µM (inactive) in the assay with Malme-3M; 2.55 µM (inactive) in the assay on OVCAR-3; > 10 µM (inactive) in the assay with RPMI-8226; > 10 µM (inactive) in the assay with RXF 393. The GI50 in the assay with SK-MEL-28, with SK-MEL-5, with SK-OV-3, with SN12C, with SNB-19 and in the assay on TK-10 was > 10 µM (inactive) each time. Also, the GI50 with UACC-257 is > 10 µM (inactive).
As to `Cc1nc2c(=O)[nH]c(=O)nc-2n(CCO)c1C`, the GI50 with ACHN, in the assay on BT-549, with DU-145, in the assay on LOX IMVI, in the assay on M14 and in the assay with MDA-MB-231 was > 100 µM (inactive) in each case. The GI50 with MDA-N, with MOLT-4, with Malme-3M, in the assay with OVCAR-3, in the assay on RPMI-8226 and with RXF 393 was > 100 µM (inactive) in each case. Moreover, the GI50 in the assay on SK-MEL-28, in the assay with SK-MEL-5, in the assay with SK-OV-3, in the assay with SN12C, in the assay with SNB-19 and in the assay with TK-10 was > 100 µM (inactive) throughout. Moreover, the GI50 with UACC-257 was > 100 µM (inactive).
As for `Cc1ccc(-n2cc(-c3ccc(Cl)cc3)c3c(NNC(=S)NCc4ccccc4)ncnc32)cc1`, the GI50 was 13.6 µM (inactive) in the assay on ACHN; 17.9 µM (inactive) in the assay on BT-549; 24.9 µM (inactive) in the assay with DU-145; 5.06 µM (inactive) with LOX IMVI; 10.5 µM (inactive) with M14; 17.8 µM (inactive) in the assay on MDA-MB-231. Further, the GI50 in the assay with MDA-N was 14.9 µM (inactive); in the assay on MOLT-4 it was 6.38 µM (inactive); in the assay with Malme-3M it was 20.3 µM (inactive); in the assay with OVCAR-3 it was 4.56 µM (inactive); with RPMI-8226 it was 9.29 µM (inactive); in the assay with RXF 393, 14.3 µM (inactive). Also, the GI50 in the assay with SK-MEL-28 was 16.1 µM (inactive); in the assay on SK-MEL-5 it was 5.09 µM (inactive); in the assay with SK-OV-3, 16.3 µM (inactive); with SN12C it was 7.21 µM (inactive); in the assay with SNB-19, 23.3 µM (inactive); with TK-10 it was 11.1 µM (inactive). The GI50 with UACC-257 is 12.6 µM (inactive).
`Cc1cc(O)c2c3c(ccc2c1)C(=O)c1c(O)cccc1C3=O` [TETRANGULOL]: the GI50 in the assay with ACHN was 17.7 µM (inactive); in the assay with BT-549, 55.5 µM (inactive); with DU-145, 4.56 µM (inactive); in the assay with LOX IMVI it was 5.57 µM (inactive); with M14, 0.675 µM (active); with MDA-MB-231, 17.5 µM (inactive). Also, the GI50 in the assay with MDA-N was 0.188 µM (active); in the assay on MOLT-4, 5.48 µM (inactive); in the assay with Malme-3M it was 0.0157 µM (active); in the assay with OVCAR-3, 0.397 µM (active); in the assay with RPMI-8226 it was > 28.5 µM (inactive); in the assay with RXF 393, > 100 µM (inactive). Also, the GI50 in the assay on SK-MEL-28 was > 100 µM (inactive); with SK-MEL-5, 0.33 µM (active); in the assay on SK-OV-3 it was > 83.2 µM (inactive); with SN12C it was 72.6 µM (inactive); in the assay on SNB-19 it was 19.9 µM (inactive); in the assay with TK-10, 54.5 µM (inactive). In addition, the GI50 in the assay on UACC-257 was 2.28 µM (inactive).
On to `CCCC(=O)Nc1cc(/C=C/C(=O)N2CC(CCl)c3c2cc(O)c2[nH]cc(C)c32)n(C)c1` (stereo not given), for which the GI50 with ACHN, in the assay with BT-549, with DU-145, in the assay with LOX IMVI, in the assay with M14 and in the assay on MDA-MB-231 was < 2.5e-05 µM (active) each time. Moreover, the GI50 in the assay on MDA-N was < 2.5e-05 µM (active); in the assay with MOLT-4, < 2.5e-05 µM (active); with Malme-3M, < 2.5e-05 µM (active); in the assay on OVCAR-3, < 2.5e-05 µM (active); in the assay on RPMI-8226, 5.49e-05 µM (active); with RXF 393 it was < 2.5e-05 µM (active). Moreover, the GI50 in the assay on SK-MEL-28, with SK-MEL-5, in the assay with SK-OV-3, in the assay on SN12C, in the assay with SNB-19 and in the assay with TK-10 was < 2.5e-05 µM (active) throughout. In addition, the GI50 in the assay with UACC-257 is < 2.5e-05 µM (active).
For `Clc1ccc(CCNC2(c3cc4ccccc4s3)CCCCC2)cc1Cl`, the GI50 in the assay with ACHN is 26.2 µM (inactive); with BT-549, 28.2 µM (inactive); with DU-145, 32.9 µM (inactive); in the assay with LOX IMVI, 18.5 µM (inactive); with M14 it was 23.8 µM (inactive); in the assay on MDA-MB-231 it was 21.1 µM (inactive). The GI50 in the assay with MDA-N was 32.3 µM (inactive); in the assay on MOLT-4, 13.8 µM (inactive); with Malme-3M, 19.5 µM (inactive); in the assay with OVCAR-3, 20.6 µM (inactive); in the assay with RPMI-8226 it was 11.5 µM (inactive); with RXF 393, 17.7 µM (inactive). Also, the GI50 with SK-MEL-28 is 25.2 µM (inactive); with SK-MEL-5 it was 15.6 µM (inactive); in the assay on SK-OV-3 it was 29.6 µM (inactive); in the assay on SN12C it was 33.7 µM (inactive); with SNB-19, 30.5 µM (inactive); with TK-10 it was 20.8 µM (inactive). Also, in the assay with UACC-257, the GI50 was 19 µM (inactive).
Take `COc1ccc(/N=C/C=C/Nc2ccc(OC)cc2)cc1`: the GI50 in the assay on ACHN was 15.6 µM (inactive); in the assay with BT-549 it was 4.18 µM (inactive); with DU-145, 18.7 µM (inactive); in the assay with LOX IMVI, 2.44 µM (inactive); with M14, 11 µM (inactive); in the assay with MDA-MB-231, 2.38 µM (inactive). Further, the GI50 with MDA-N was 4.78 µM (inactive); in the assay on MOLT-4, 4.51 µM (inactive); with Malme-3M, 11.4 µM (inactive); in the assay with OVCAR-3, 1.84 µM (inactive); in the assay with RPMI-8226, 8.81 µM (inactive); in the assay with RXF 393, 7.67 µM (inactive). The GI50 was 15.2 µM (inactive) in the assay on SK-MEL-28; 4.66 µM (inactive) in the assay with SK-MEL-5; 19.7 µM (inactive) in the assay on SK-OV-3; 3.9 µM (inactive) in the assay on SN12C; 3.43 µM (inactive) in the assay with SNB-19; 11.8 µM (inactive) in the assay on TK-10. In addition, the GI50 with UACC-257 was 7.35 µM (inactive).
As for `CN1C(=O)C2(c3ccccc31)C1CC3C(CO1)C1C2C3(CO)CN1C#N` (stereo not given), the GI50 with ACHN, in the assay on BT-549, with DU-145, with LOX IMVI, in the assay on M14 and in the assay with MDA-MB-231 was > 100 µM (inactive) each time. Moreover, the GI50 with MDA-N, in the assay with MOLT-4, with Malme-3M, in the assay with OVCAR-3, in the assay with RPMI-8226 and in the assay on RXF 393 was > 100 µM (inactive) in each case. Also, the GI50 in the assay with SK-MEL-28, with SK-MEL-5, in the assay on SK-OV-3, in the assay with SN12C, in the assay with SNB-19 and in the assay with TK-10 was > 100 µM (inactive) each time. Further, the GI50 with UACC-257 is > 100 µM (inactive).
In the case of `c1c[nH]c(CN2CCOCC2)n1`, the GI50 in the assay on ACHN, in the assay on BT-549, in the assay on DU-145, in the assay on LOX IMVI, in the assay with M14 and in the assay on MDA-MB-231 was > 100 µM (inactive) each time. Moreover, the GI50 in the assay on MDA-N, in the assay on MOLT-4, with Malme-3M, in the assay on OVCAR-3, in the assay with RPMI-8226 and in the assay with RXF 393 was > 100 µM (inactive) each time. In addition, the GI50 in the assay on SK-MEL-28, in the assay on SK-MEL-5, with SK-OV-3, in the assay on SN12C, with SNB-19 and in the assay on TK-10 was > 100 µM (inactive) throughout. In addition, the GI50 in the assay with UACC-257 was > 100 µM (inactive).
Regarding `CN(C)c1cccc(-c2cc(=S)c3cc4c(cc3[nH]2)OCO4)c1`, the GI50 was 7.93 µM (inactive) with ACHN; > 100 µM (inactive) in the assay with BT-549; 4.74 µM (inactive) with DU-145; 7.73 µM (inactive) in the assay on LOX IMVI; 5.28 µM (inactive) in the assay on M14; 31.9 µM (inactive) in the assay on MDA-MB-231. Moreover, the GI50 is 2.83 µM (inactive) in the assay with MDA-N; 15.8 µM (inactive) with MOLT-4; 8.28 µM (inactive) in the assay with Malme-3M; 8.67 µM (inactive) in the assay on OVCAR-3; > 21.1 µM (inactive) with RPMI-8226; 4.83 µM (inactive) with RXF 393. Also, the GI50 in the assay on SK-MEL-28 was > 100 µM (inactive); in the assay on SK-MEL-5 it was 3.4 µM (inactive); with SK-OV-3 it was 6.14 µM (inactive); with SN12C it was 16.4 µM (inactive); in the assay with SNB-19, 4.7 µM (inactive); in the assay with TK-10 it was > 77.4 µM (inactive). Besides, the GI50 in the assay on UACC-257 was 9.25 µM (inactive).
